Experiments:
FTase = target: T1, FTase (Rattus norvegicus, UniProt Q02293+Q04631); experiment: In vitro FTase assay (K-Ras4B substrate, [3H]FPP); assay type: biochemical; details: P3-D9, P3-E5: concentration increased to 100 (unit not given)
T1 construct: purchased JENA BIOSCIENCE
From the text: To further characterize the pilot library, inhibitors of protein farnesyltransferase were identified. This was accomplished by using K-Ras4B as a substrate protein, tritiated farnesylpyrophosphate ([^3H]FPP) and protein farnesyltransferase. See Finegold, A. A., Johnson, D. I., Farnsworth, C. C., Gelb, M. H., Judd, S. R., Glomset, J. A. and Tamanoi, F. (1991) Protein geranylgeranyltransferase of Saccharomyces cerevisiae is specific for Cys-Xaa-Xaa-Leu motif and requires the CDC43 gene product but not the DPR1 gene product. Proc. Natl. Acad. Sci. USA 88, 4448-4452. […] On the other hand, the structure of the compounds P1-F11, P2-B7 and P2-E9 resemble those of GGTIs. The FTI P1-F11 resembles the GGTI P1-F10, while the FTI P2-B7 resembles the GGTI P2-C10. The FTI P2-E9 is similar to the GGTI P2-G3. Similarity of some GGTI and FTI compounds may point to common structural features between the two closely related enzymes. As described before, FTase and GGTase I have similar three-dimensional structures and a shared alpha subunit. On the other hand, FTase specific inhibitors may recognize a region(s) that is different between the two enzymes.
Examples 2-8 illustrate assays of bioactivity. These methods are applicable to the compounds of the present invention having the particular linkers and scaffolds described herein, to determine their activity. […] Varying concentrations of the two compounds were added to each enzyme reaction. The FTase (protein farnesyltransferase) assay was carried out using K-Ras4B as a substrate protein, FTase (JENA Bioscience, San Diego, Calif.) and [3H]farnesyl pyrophosphate. Incubation was for 30 min at 37° C.
GGTase-I and FTase activities were determined by following the incorporation of radiolabeled isoprenoid [^3H]-geranylgeranyl or [^3H]-farnesyl into substrate proteins. FTase or GGTase-I (50 nM) were used to initiate reactions containing 0.4 μM of [^3H]-FPP or 0.5 μM of [^3H]-GGPP and 2 μM of MBP-tagged substrates (K-Ras4B for FTase; RhoA for GGTase-I) in 20 μl of buffer {50 mM Tris-HCl (pH 7.5), 10 mM MgCl2, […] and 5 mM DTT}. Inhibitors were added at the indicated concentrations. The final DMSO concentration was 2.5% for all samples.
Reactions were carried out for 10 min at 30° C. The reaction mixture was spotted onto a filter paper, treated with 10% trichloroacetic acid (TCA) followed by ethanol and acetone washing. The filter was counted using a scintillation counter. Kinetic assays in which the GGPP concentration was varied employed fixed concentrations of GGTase-I and RhoA, and reactions were carried out for 5 min. Similarly, fixed concentrations of GGTase-I and GGPP were used when the amount of RhoA was varied.

[1] = test system: H-Ras farnesylation in NIH3T3 cells; experiment: H-Ras mobility shift immunoblot in NIH3T3 cells; assay type: cell-based; details: 48 hours
Description: K562 cells were treated with modified compounds for 72 hours and then cell number was counted. IC50 values of cell viability relative to the DMSO were measured. […] Data represent the mean+/−S.D. of two measurements from two independent experiments. *, P<0.05 compared with the value for DMSO. […] Whole cell lysates from cells treated with DMSO, P5-H6, P61-A6, GGTI (GGTI-298), FTI (BMS-225975) or RabGGTI (P49-F6) for 48 hours were prepared and processed for immunoblot analysis using antibody against unprenylated form of Rap1 (C: upper panel), Total-Rap1 (C: middle panel), H-Ras (D: upper panel), Rab5b (E: upper panel) or actin (C, D, and E: lower panel). The immunoblots shown represent two independent experiments for each treatment.
This was examined by using a farnesylated protein H-Ras.

[2] = target: GGTase I (K-Ras4B as substrate) (Homo sapiens, UniProt P49354+P53609); experiment: GGTase I filter-binding assay, K-Ras4B as substrate (library screens); assay type: biochemical; details: for % activity of GGTase I for K-Ras4B in the presence of the compound: compound 50 μM, DMSO = 100%, smaller = better inhibition, 50 µM
Description: (§1) The pilot library was screened for inhibitors of protein geranylgeranyltransferase type I. Protein prenyltransferase assays were carried out by using filter binding. Two different substrates, RhoA and K-Ras4B, were used for the assay. RhoA ends with the CaaL motif and is an exclusive substrate for GGTase I, while K-Ras4B ends with the CaaX motif and is modified by both GGTase I and FTase.
(§2) In the assay, a fixed concentration of 100 μM was used and the results are plotted for the inhibition of RhoA (vertical axis) as well as for K-Ras4B (horizontal axis). […] They are 2,6-diaryl-N-tosyl-1,2,5,6-tetrahydropyridine-3-carboxylic acids, except P2-D5 that is missing an aryl substituent at C2.
The % activity of GGTase I was determined as follows: a working solution that contained each compound in DMSO at the concentration of 1 mM was prepared. The working solution was added to GGTase I reaction mixture so that the final concentration of the compound is 50 μM. GGTase I activity was assayed by incubating [^3H]GGPP with K-Ras4B or RhoA protein in the presence of GGTase I and examining radioactivity incorporated into the substrate protein by spotting onto a filter paper. After washing with TCA, ethanol and acetone, the radioactivity retained on the filter was determined by the use of a scintillation counter. GGTase I activity in the presence of DMSO was taken as a 100% value and the activity in the presence of the compound was shown as percent activity compared with the 100% value. […] For 6-aryl-4-mercapto-N-sulfonyl-piperidine-3-carboxylic acid 11 the 4-mercapto substituent appeared critical to endowing GGTase inhibitory activity. […] 4-Chlorobenzylthio substituent was the next best; 12 compounds out of 21 containing the 4-chlorobenzylthio moiety were active. 4-Benzylthio substituent was also good; 7 piperidines out of 21 bearing 4-benzylthio group were active. […] 19 imines (C15>C12=C41>C40>C01=C11>C05=C10=C30=C35=C37=C38>C02, C03, C04, C06, C39=C43) out of 21 appeared in the GGTIs. […] This corresponds to 47 6-aryl-4-mercapto-N-sulfonyl-piperidine-3-carboxylic acids out of 357 compounds.
A collection of 138 heterocycles was screened for their ability to inhibit the activity of human GGTase-I to geranylgeranylate K-Ras4B or RhoA. Purified GGTase-I was incubated with its substrate protein K-Ras4B or RhoA, [^3H]GGPP, and the 138 compounds. After 30 min, the degree of incorporation of tritiated geranylgeranyl groups was measured using a scintillation counter.

GGTase-I = target: T2, GGTase-I (Rattus norvegicus, UniProt P53610+Q04631); experiment: In vitro GGTase-I enzyme assay (IC50, kinetics); assay type: biochemical
T2 construct: purchased JENA BIOSCIENCE
Method in brief: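 Rat GGTase-I (50 nM) with 0.5 μM [3H]-GGPP and 2 μM MBP-RhoA in Tris-HCl pH 7.5, MgCl2, ZnCl2, DTT, 2.5% DMSO, 10 min at 30 °C; radiolabel incorporation by TCA filter binding and scintillation. Kinetics: 5 min reactions varying GGPP or RhoA at fixed other components.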

[3] = target: GGTase I (RhoA as substrate) (Homo sapiens, UniProt P49354+P53609); experiment: GGTase I filter-binding assay, RhoA as substrate (library screens); assay type: biochemical; details: compound 50 μM, DMSO = 100%, smaller = better inhibition
Description: as §1, §2
The % activity of GGTase I was determined as follows: a working solution that contained each compound in DMSO at the concentration of 1 mM was prepared. The working solution was added to GGTase I reaction mixture so that the final concentration of the compound is 50 μM. GGTase I activity was assayed by incubating [^3H]GGPP with K-Ras4B or RhoA protein in the presence of GGTase I and examining radioactivity incorporated into the substrate protein by spotting onto a filter paper. After washing with TCA, ethanol and acetone, the radioactivity retained on the filter was determined by the use of a scintillation counter. GGTase I activity in the presence of DMSO was taken as a 100% value and the activity in the presence of the compound was shown as percent activity compared with the 100% value. […] For 6-aryl-4-mercapto-N-sulfonyl-piperidine-3-carboxylic acid 11 the 4-mercapto substituent appeared critical to endowing GGTase inhibitory activity. […] 4-Chlorobenzylthio substituent was the next best; 12 compounds out of 21 containing the 4-chlorobenzylthio moiety were active. […]
A collection of 138 heterocycles was screened for their ability to inhibit the activity of human GGTase-I to geranylgeranylate K-Ras4B or RhoA. […] After 30 min, the degree of incorporation of tritiated geranylgeranyl groups was measured using a scintillation counter.

inhibition of FTase activity (FIG. 16) (FTase)	inhibition of GGTase I (FIG. 16 controls) (GGTase-I)	SMILES	mobility shift of H-Ras (protein farnesylation) [1]	relative inhibition of RhoA-driven versus K-Ras4B-driven GGTase I activity ([2]; pilot screen 100 μM, library screen 50 μM)	% activity of GGTase I for RhoA in the presence of the compound [3]	% activity of GGTase I for K-Ras4B in the presence of the compound [2]
little inhibition	inhibits GGTase I	COC(=O)[C@H](CC(C)C)NC(=O)c1ccc(NC[C@@H](N)CS)cc1-c1cccc2ccccc12 [GGTI-298, reference compound]	no such mobility shift	inhibit RhoA-driven GGTase I activity slightly better than K-Ras4B-driven GGTase I activity	–	–
–	–	Cc1ccccc1S(=O)(=O)N1C(c2ccc(Cl)cc2)CC=C(C(=O)O)[C@@H]1c1ccccc1 (some centres unmarked) [drawing 33]	–	–	8.8%	10.6%
–	–	Cc1ccccc1S(=O)(=O)N1C(c2ccc(Cl)cc2)CC=C(C(=O)O)[C@@H]1c1ccccc1 (some centres unmarked) [drawing 39]	–	–	12.4%	15.6%

From patent US8815935B2, “Inhibitors of protein prenyltransferases” (The Regents of the University of California, priority 2008, dated 2014)
